According to publication PMC4377999, “Kalkitoxin Inhibits Angiogenesis, Disrupts Cellular Hypoxic Signaling, and Blocks Mitochondrial Electron Transport in Tumor Cells” (Marine Drugs, 2015):

Target: T1, mitochondrial electron transport chain complex I (NADH-ubiquinone oxidoreductase) (Homo sapiens, UniProt O75251+O75306+P03886)
T1 construct: gene NDUFS2; native multi-subunit complex in digitonin-permeabilized T47D cells
Experiment: oxygen consumption (Clark-type electrode) in permeabilized T47D cells with malate/pyruvate, succinate bypass; […]
Type: cell-based

## C=C[C@@H]1CSC(C[C@@H](C)[C@@H](C)C[C@H](C)CCN(C)C(=O)[C@H](C)CC)=N1 [kalkitoxin]
  oxygen consumption (Clark-type electrode) in permeabilized T47D cells with malat: kalkitoxin potently suppresses mitochondrial respiration in tumor cells by selectively inhibiting ETC complex I
